The numbers were not newly measured in US8673347B2 (Creabilis Therapeutics S.p.A., priority 2005, dated 2014), which cites them from elsewhere.

Structures are written as SMILES.

The target in one data set is MLK3 (Homo sapiens, UniProt Q16584). The note with it: cited from earlier work.
For a further data set, the target named is TrkA (Homo sapiens, UniProt P04629). The note with it: cited from earlier work.
Sequence of TrkA (P04629 33-796, species assumed): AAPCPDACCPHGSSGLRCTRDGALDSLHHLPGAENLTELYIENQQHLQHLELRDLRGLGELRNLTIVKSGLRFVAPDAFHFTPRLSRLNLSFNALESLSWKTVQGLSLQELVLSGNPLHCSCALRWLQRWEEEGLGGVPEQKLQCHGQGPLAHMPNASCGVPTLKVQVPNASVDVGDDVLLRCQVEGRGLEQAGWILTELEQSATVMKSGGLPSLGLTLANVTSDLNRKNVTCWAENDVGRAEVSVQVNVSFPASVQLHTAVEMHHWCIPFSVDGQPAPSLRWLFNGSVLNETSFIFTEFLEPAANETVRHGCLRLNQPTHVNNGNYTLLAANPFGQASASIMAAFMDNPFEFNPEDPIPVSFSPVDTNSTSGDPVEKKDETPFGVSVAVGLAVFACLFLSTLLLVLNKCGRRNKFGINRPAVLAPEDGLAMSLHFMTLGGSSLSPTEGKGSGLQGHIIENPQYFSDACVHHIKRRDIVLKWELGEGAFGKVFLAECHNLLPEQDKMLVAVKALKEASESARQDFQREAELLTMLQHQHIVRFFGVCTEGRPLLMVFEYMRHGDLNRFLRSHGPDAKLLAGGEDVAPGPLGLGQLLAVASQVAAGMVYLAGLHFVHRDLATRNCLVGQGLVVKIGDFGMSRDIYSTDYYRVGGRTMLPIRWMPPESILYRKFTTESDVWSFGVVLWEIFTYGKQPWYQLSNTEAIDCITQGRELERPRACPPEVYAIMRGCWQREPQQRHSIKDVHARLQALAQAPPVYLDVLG

Sequence of MLK3 (Q16584 whole entry, species assumed): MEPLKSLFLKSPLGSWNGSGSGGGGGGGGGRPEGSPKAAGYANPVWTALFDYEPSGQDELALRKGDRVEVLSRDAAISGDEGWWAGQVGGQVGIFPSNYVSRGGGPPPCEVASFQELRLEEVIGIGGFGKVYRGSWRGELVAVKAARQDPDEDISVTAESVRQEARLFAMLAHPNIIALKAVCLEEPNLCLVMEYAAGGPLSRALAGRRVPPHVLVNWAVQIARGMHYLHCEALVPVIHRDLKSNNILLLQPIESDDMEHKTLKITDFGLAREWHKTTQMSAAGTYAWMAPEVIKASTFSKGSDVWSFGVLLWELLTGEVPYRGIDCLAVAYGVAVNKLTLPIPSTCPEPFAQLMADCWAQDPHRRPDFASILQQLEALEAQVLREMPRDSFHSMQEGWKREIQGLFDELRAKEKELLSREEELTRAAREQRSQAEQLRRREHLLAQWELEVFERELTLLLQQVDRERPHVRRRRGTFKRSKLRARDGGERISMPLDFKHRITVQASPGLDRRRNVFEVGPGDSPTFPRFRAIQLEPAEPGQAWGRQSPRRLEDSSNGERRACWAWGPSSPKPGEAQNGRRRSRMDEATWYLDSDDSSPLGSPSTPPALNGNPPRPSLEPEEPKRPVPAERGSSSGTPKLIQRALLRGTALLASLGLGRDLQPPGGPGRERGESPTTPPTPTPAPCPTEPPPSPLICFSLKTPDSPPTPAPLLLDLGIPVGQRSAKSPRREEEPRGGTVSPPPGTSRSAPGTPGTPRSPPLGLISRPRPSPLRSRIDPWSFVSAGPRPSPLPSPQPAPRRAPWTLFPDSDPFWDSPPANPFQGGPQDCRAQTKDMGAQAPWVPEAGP

As for `CCSCc1ccc2c(c1)c1c3c(c4c5cc(CSCC)ccc5n5c4c1n2[C@H]1C[C@](O)(C(=O)OC)[C@]5(C)O1)CNC3=O` [CEP1347], the “inhibition of MAPKKKs, including MLK3” value on MLK3 is reported as “directly inhibit”. Moreover, at TrkA, the TrkA inhibition entry was “does not inhibit TrkA”.
